Patent US20240173320A1, “METHODS OF USING EHMT2 INHIBITORS IN IMMUNOTHERAPIES” (Epizyme, Inc., priority 2017, published 2024)
Entries after “also recorded” stand apart in the source; their conditions may differ.

Experiments:
[1] = system: naive CD4 T cells isolated from human PBMCs; experiment: T regulatory (Treg) cell polarization of naive CD4 T cells, flow cytometry for CD25 and Foxp3; type: cell-based; settings: for Treg polarization: naive CD4 T cells from healthy donor PBMCs, six days, Foxp3 and CD25 by flow cytometry (Example 3, FIGS. 3, 4A-4B)
Description: (§1) To evaluate the effects of Compounds on T regulatory (Treg) and Th17 cell polarization, naive CD4 T cells were isolated from human peripheral blood mononuclear cells (PBMCs) using magnetic bead separation and cultured with or without compound in the presence of Treg or Th17 polarizing cytokines. For Treg polarization, naive cells were cultured for five days with anti-CD3, anti-CD28, TL-2 and TGFβ. After five days, the cells were then evaluated for CD25 and Foxp3 expression by flow cytometry. For Th17 polarization, naive cells were cultured for 10-11 days with anti-CD3, anti-CD28, […], IL-6, IL-23, TGFβ, anti-IFNγ antibody and anti-IL-4 antibody. After 10-11 days cells were stimulated and then evaluated for IL-17 and IFNγ by flow cytometry.
To evaluate the effects of Compound 571 on Treg cell polarization, naive cells were isolated from human peripheral blood mononuclear cells (PBMCs), stimulated with coated CD3 antibody and soluble CD28 antibody, and cultured with or without compound in the presence of Treg polarizing cytokines for five days, as described in [0601]. Compound was replenished at either day three or day four.
(§2) Naive CD4 T cells were isolated from healthy donor PBMCs using magnetic bead separation and were incubated for six days with cytokine cocktail to promote polarization to T regulatory cells, as described in [0601]. Cells were simultaneously treated with various concentrations of G9a inhibitors, with compound replenishment occurring at either day three or day four. Polarization to T regulatory cells was assessed by flow cytometry using Foxp3 and CD25. Methyl mark (H3K9me2) was also assessed by flow cytometry.

[2] = system: naive CD4 T cells isolated from human PBMCs; experiment: Th17 cell polarization of naive CD4 T cells, flow cytometry for IL-17 and IFNγ; type: cell-based; settings: for percentage of polarized Th17 cells: naive cells from human PBMCs, Th17 polarizing cytokines, 11 days, IL-17 and IFNγ by flow cytometry (Example 2, FIGS. 1B, 2)
Description: as §1
To evaluate the effects of Compounds 205 and 571 on Th17 cell polarization, naive cells were isolated from human peripheral blood mononuclear cells (PBMCs), stimulated with coated CD3 antibody and soluble CD28 antibody, and cultured with or without compound in the presence of Th17 polarizing cytokines for 11 days as described in [0601]. Compound was replenished at either day three or day four. After 11 days of treatment, cells were stimulated with PMA, ionomycin, brefeldin A and monensin, and then evaluated for IL-17 and IFNγ by flow cytometry.
(§3) Naive CD4 T cells were isolated from healthy donor PBMCs using magnetic bead separation and were incubated with cytokine cocktail to promote polarization to Th17 cells, as described in [0601]. Cells were simultaneously treated with various concentrations of G9a inhibitors, with compound replenishment occurring at day three or four. Polarization to Th17 cells was assessed by flow cytometry using IL-17A and IFNy. Methyl mark (H3K9me2) was also assessed by flow cytometry.

H3K9me2 [3] = experiment: Methyl mark (H3K9me2) by flow cytometry under Treg polarizing conditions; type: cell-based, human; settings: naive CD4 T cells from healthy donor PBMCs, six days, flow cytometry (Example 3, FIGS. 3, 4A-4B)
Description: as §2

H3K9me2 [4] = experiment: Methyl mark (H3K9me2) by flow cytometry under Th17 polarizing conditions; type: cell-based, human; settings: naive CD4 T cells from healthy donor PBMCs, flow cytometry (Example 4, FIGS. 5, 6A-6B)
Description: as §3

Structure (SMILES)	Treg polarization [1]	percentage of polarized Th17 cells [2]	H3K9me2 (methyl mark) under Treg polarization (H3K9me2 [3])	H3K9me2 (methyl mark) under Th17 polarization (H3K9me2 [4])	polarized Treg cells ([1]; naive cells from human PBMCs, Treg polarizing cytokines, five days (Example 2, FIG. 1A))	Th17 polarization ([2]; naive CD4 T cells from healthy donor PBMCs, IL-17A and IFNγ by flow cytometry (Example 4, FIG. 5))
CNc1cc(C)nc(Nc2ccc(OC)c(OCCCN3CCCC3)c2)n1 [Compound 205]	increased	dose-dependent increase	decreased	decreased	–	–
CCN1CC[C@@H](COc2cc(Nc3nc(C)cc(NC)n3)ccc2OC)C1 [Compound 571]	–	dose-dependent increase	–	–	anin polarized Treg cells	–
CNC1=Nc2cc(C#CCN3CCCCC3)c(OC)cc2C12CCC2 [Compound A75]	increased	–	decreased	decreased	–	–
CNCc1cnn(-c2cc(Nc3nc(C)cc(NC)n3)ccc2OC)c1 [Compound D6]	dose-dependent increase; also recorded: increased	–	dose-dependent decrease; also recorded: decreased	dose-dependent decrease; also recorded: decreased	–	dose-dependent increase
